Experimental data published in US8691850B2, “Substituted phenylaminothiazoles and use thereof” (Bayer Intellectual Property GmbH, priority 2004, dated 2014).

- melting point: 192 to 194 °C
SMILES: N#Cc1c(N)nc(SCc2csc(Nc3cccc(Cl)c3)n2)c(C#N)c1-c1ccc(OCC(O)CO)cc1 (stereo not shown) [Example 1, 2-Amino-6-[({2-[(3-chlorophenyl)amino]-1,3-thiazol-4-yl}methyl)thio]-4-[4-(2,3-dihydroxypropoxy)phenyl]pyridine-3,5-dicarbonitrile]
